Data reported in ChEMBL document CHEMBL4130388, “Recent advances of pyrazole-containing derivatives as anti-tubercular agents” (Eur J Med Chem, 2017).
In brackets after ≈: the same amount, converted by molar mass.

How the values were obtained:
[1] = system: Mycobacterium tuberculosis; assay: Antitubercular activity against Mycobacterium tuberculosis H37Rv by Lowensteine-Jensen method; assay type: functional
[2] = system: Mycobacterium tuberculosis; assay: Antitubercular activity against Mycobacterium tuberculosis H37Rv; assay type: functional
[3] = system: Mycobacterium tuberculosis; assay: Growth inhibition of Mycobacterium tuberculosis H37Rv at 62.5 ug/ml by broth dilution method relative to control; assay type: functional; details: read-out: GI
[4] = system: Mycobacterium tuberculosis; assay: Antitubercular activity against Mycobacterium tuberculosis spec.210; assay type: functional
[5] = system: Mycobacterium tuberculosis; assay: Antitubercular activity against Mycobacterium tuberculosis spec.192; assay type: functional
[6] = molecular target: T1, Pantothenate synthetase (Mycobacterium tuberculosis, UniProt P9WIL5); assay: Inhibition of Mycobacterium tuberculosis pantothenate synthetase
T1 sequence (P9WIL5 whole entry): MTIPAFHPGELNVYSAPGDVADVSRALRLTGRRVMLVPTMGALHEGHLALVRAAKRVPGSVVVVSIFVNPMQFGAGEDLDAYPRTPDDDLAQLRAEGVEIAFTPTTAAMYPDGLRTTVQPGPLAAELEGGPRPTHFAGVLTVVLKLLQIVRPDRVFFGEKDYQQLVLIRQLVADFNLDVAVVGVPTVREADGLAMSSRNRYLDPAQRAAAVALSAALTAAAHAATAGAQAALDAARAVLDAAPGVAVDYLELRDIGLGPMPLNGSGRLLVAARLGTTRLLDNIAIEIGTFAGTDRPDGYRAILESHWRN

[7] = system: Mycobacterium tuberculosis; assay: Growth inhibition of Mycobacterium tuberculosis H37Rv ATCC 27294 at 6.25 ug/ml by BACTEC radiometric method relative to control; assay type: functional; details: read-out: GI
[8] = system: Mycobacterium tuberculosis; assay: Antitubercular activity against Mycobacterium tuberculosis H37Rv ATCC 27294 at 6.25 ug/ml by BACTEC radiometric method relative to control; assay type: functional
[9] = system: Mycobacterium tuberculosis; assay: Antitubercular activity against Mycobacterium tuberculosis; assay type: functional
[10] = system: Mycobacterium tuberculosis; assay: Potency index, ratio of pyrazinamide MIC to compound MIC for Mycobacterium tuberculosis; assay type: functional
[11] = system: Mycobacterium tuberculosis; assay: Potency index, ratio of pyrazinamide MIC to compound MIC for Mycobacterium tuberculosis H37Rv; assay type: functional
[12] = system: Mycobacterium tuberculosis; assay: Antitubercular activity against Mycobacterium tuberculosis H37Rv by broth dilution method; assay type: functional

Row | Structure (SMILES) | MIC [1] | MIC [2] | MIC [4] | MIC [5] | also measured
1 | Cc1cccc(C2C(Cl)C(=O)N2C(=O)NCCCn2ncc3ccc([N+](=O)[O-])cc32)c1 (centres undefined) | 6.25 to 50 µg/mL (≈ 14.1 to 113 µM) |  |  |  | 
2 | COC(=O)C1=C(C)NC(C)=C(C(=O)OC)C1c1cn(-c2ccccc2)nc1-c1ccc([N+](=O)[O-])cc1 |  | 0.02 µg/mL |  |  | 
3 | COc1cccc(C2C(Cl)C(=O)N2C(=O)NCCCn2ncc3ccc([N+](=O)[O-])cc32)c1 (centres undefined) | 6.25 to 50 µg/mL (≈ 13.7 to 109 µM) |  |  |  | 
4 | Cc1nn(-c2ccccc2)c2c1C(c1cccc([N+](=O)[O-])c1)c1c(nc[nH]c1=O)O2 (centres undefined) |  |  |  |  | inhibition of growth at 62.5 µg/mL [3]: 98%
5 | COc1ccc(-n2cc(Cn3ncc4c3CCN(C(=O)Nc3ccccc3)C4)nn2)cc1 |  | 24.7 µM | 24.7 µM (≈ 10.6 µg/mL) | 24.7 µM (≈ 10.6 µg/mL) | IC50 [6]: 1010 nM
6 | COc1nc2ccc(Br)cc2c2c1C(C)(OCC(O)Cn1ccc(-c3ccc(C)c(C)c3)n1)c1ccccc1-2 (centres undefined) |  |  |  |  | inhibition of growth at 6.25 µg/mL [7]: 40 to 88%; MIC99 [8]: 5 µM (≈ 2.92 µg/mL)
7 | O=C(Nc1ccccc1)N1CCc2c(cnn2Cc2cn(-c3ccc(Br)cc3)nn2)C1 |  | 24.7 to 200 µM | 24.7 to 200 µM (≈ 11.8 to 95.7 µg/mL) | 24.7 to 200 µM (≈ 11.8 to 95.7 µg/mL) | 
8 | O=C(Nc1ccccc1)N1CCc2c(cnn2Cc2cn(-c3ccccc3F)nn2)C1 |  | 24.7 to 200 µM | 24.7 to 200 µM (≈ 10.3 to 83.5 µg/mL) | 24.7 to 200 µM (≈ 10.3 to 83.5 µg/mL) | 
9 | COc1cccc(-n2cc(Cn3ncc4c3CCN(C(=O)Nc3ccccc3)C4)nn2)c1 |  | 24.7 to 200 µM | 24.7 to 200 µM (≈ 10.6 to 85.9 µg/mL) | 24.7 to 200 µM (≈ 10.6 to 85.9 µg/mL) | 
10 | O=C(NCCCn1ncc2ccc([N+](=O)[O-])cc21)N1C(=O)C(Cl)C1c1cccc(O)c1 (centres undefined) | 6.25 to 50 µg/mL (≈ 14.1 to 113 µM) |  |  |  | 
11 | O=C(NCCCn1ncc2ccc([N+](=O)[O-])cc21)N1C(=O)C(Cl)C1c1ccccc1Br (centres undefined) | 6.25 to 50 µg/mL (≈ 12.3 to 98.7 µM) |  |  |  | 
12 | O=C(NCCCn1ncc2ccc([N+](=O)[O-])cc21)N1C(=O)C(Cl)C1c1ccc(Cl)cc1 (centres undefined) | 6.25 µg/mL (≈ 13.5 µM) |  |  |  | 
13 | O=C(Nc1ccccc1)N1CCc2c(cnn2Cc2cn(-c3cc(Cl)cc(Cl)c3)nn2)C1 |  | 24.7 to 200 µM | 24.7 to 200 µM (≈ 11.6 to 93.7 µg/mL) | 24.7 to 200 µM (≈ 11.6 to 93.7 µg/mL) | 
14 | Cc1ccc(C2C(Cl)C(=O)N2C(=O)NCCCn2ncc3ccc([N+](=O)[O-])cc32)cc1 (centres undefined) | 6.25 to 50 µg/mL (≈ 14.1 to 113 µM) |  |  |  | 
15 | N#Cc1ccc(-c2nnc(-c3n[nH]cc3-c3ccc(Cl)cc3)o2)cc1 |  |  |  |  | MIC [9]: 25 µg/mL (≈ 71.9 µM); Ratio [10]: 4
16 | Cc1cc(-n2nc(C(=O)NCC(F)(F)F)cc2-c2cccnc2)c2cccc(C(F)(F)F)c2n1 |  | 3.13 µg/mL |  |  | Ratio [11]: 16

Row | Structure (SMILES) | MIC [1] | MIC [2] | MIC [4] | MIC [5] | also measured
17 | O=C(Nc1ccccc1)N1CCc2c(cnn2Cc2cn(-c3ccc(OC(F)(F)F)cc3)nn2)C1 |  | 24.7 to 200 µM | 24.7 to 200 µM (≈ 12 to 96.7 µg/mL) | 24.7 to 200 µM (≈ 12 to 96.7 µg/mL) | 
18 | O=C(Nc1ccccc1)N1CCc2c(cnn2Cc2cn(-c3ccc(Cl)c(Cl)c3)nn2)C1 |  | 24.7 to 200 µM | 24.7 to 200 µM (≈ 11.6 to 93.7 µg/mL) | 24.7 to 200 µM (≈ 11.6 to 93.7 µg/mL) | 
19 | O=C(NCCCn1ncc2ccc([N+](=O)[O-])cc21)N1C(=O)C(Cl)C1c1ccccc1O (centres undefined) | 6.25 to 50 µg/mL (≈ 14.1 to 113 µM) |  |  |  | 
20 | O=C(Nc1ccccc1)N1CCc2c(cnn2Cc2cn(-c3ccccc3[N+](=O)[O-])nn2)C1 |  | 24.7 to 200 µM | 24.7 to 200 µM (≈ 11 to 88.9 µg/mL) | 24.7 to 200 µM (≈ 11 to 88.9 µg/mL) | 
21 | O=C(NCCCn1ncc2ccc([N+](=O)[O-])cc21)N1C(=O)C(Cl)C1c1ccccc1Cl (centres undefined) | 6.25 to 50 µg/mL (≈ 13.5 to 108 µM) |  |  |  | 
22 | CCc1ccc(-n2cc(Cn3ncc4c3CCN(C(=O)Nc3ccccc3)C4)nn2)cc1 |  | 24.7 to 200 µM | 24.7 to 200 µM (≈ 10.6 to 85.5 µg/mL) | 24.7 to 200 µM (≈ 10.6 to 85.5 µg/mL) | 
23 | O=C(Nc1ccccc1)N1CCc2c(cnn2Cc2cn(-c3ccc(F)c(F)c3)nn2)C1 |  | 24.7 to 200 µM | 24.7 to 200 µM (≈ 10.8 to 87.1 µg/mL) | 24.7 to 200 µM (≈ 10.8 to 87.1 µg/mL) | 
24 | Cc1ccc(-n2cc(Cn3ncc4c3CCN(C(=O)Nc3ccccc3)C4)nn2)cc1C |  | 24.7 to 200 µM | 24.7 to 200 µM (≈ 10.6 to 85.5 µg/mL) | 24.7 to 200 µM (≈ 10.6 to 85.5 µg/mL) | 
25 | Cc1ccccc1C1C(Cl)C(=O)N1C(=O)NCCCn1ncc2ccc([N+](=O)[O-])cc21 (centres undefined) | 6.25 to 50 µg/mL (≈ 14.1 to 113 µM) |  |  |  | 
26 | CCOC(=O)C1=C(C)NC(C)=C(C(=O)OCC)C1c1cn(-c2ccccc2)nc1-c1ccc(F)cc1 |  | 0.02 µg/mL |  |  | 
27 | O=C(NCCCn1ncc2ccc([N+](=O)[O-])cc21)N1C(=O)C(Cl)C1c1cccc([N+](=O)[O-])c1 (centres undefined) | 6.25 to 50 µg/mL (≈ 13.2 to 106 µM) |  |  |  | 
28 | CCOC(=O)C1=C(C)NC(C)=C(C(=O)OCC)C1c1cn(-c2ccccc2)nc1-c1ccc(Br)cc1 |  | 0.02 µg/mL |  |  | 
29 | CC[C@@H](CO)NCCN[C@@H](CC)CO [ETHAMBUTOL] | 0.2 to 4 µg/mL (≈ 0.979 to 19.6 µM) | 3.13 µg/mL |  |  | 
30 | NNC(=O)c1ccncc1 [ISONIAZID] | 0.2 to 4 µg/mL (≈ 1.46 to 29.2 µM) | 0.03 µg/mL |  |  | MIC [12]: 0.03 µg/mL (≈ 0.219 µM); MIC99 [8]: 1.86 µM (≈ 0.255 µg/mL)
31 | NC(=O)c1cnccn1 [PYRAZINAMIDE] | 0.2 to 4 µg/mL (≈ 1.62 to 32.5 µM) | 50 µg/mL |  |  | MIC [9]: 100 µg/mL (≈ 812 µM)
32 | CO[C@H]1/C=C/O[C@@]2(C)Oc3c(C)c(O)c4c(O)c(c(/C=N/N5CCN(C)CC5)c(O)c4c3C2=O)NC(=O)/C(C)=C\C=C\[C@H](C)[C@H](O)[C@@H](C)[C@@H](O)[C@@H](C)[C@H](OC(C)=O)[C@@H]1C [RIFAMPIN] | 0.2 to 4 µg/mL (≈ 0.243 to 4.86 µM) |  |  |  | 
